Data published in PubChem BioAssay AID743319 (Broad Institute, 2014).
Activity calls are given as the source filed them.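 The calls were made as follows: active = fitted curve reaches 200% activation at or below the highest valid dose tested for that compound; inconclusive = flat fit between 30 and 70% activation, or unreliable fit; inactive = the rest.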

Target: Endoplasmic reticulum aminopeptidase 2 (Homo sapiens) (UniProt Q6P179)
Experiment: ERAP2 activation by compounds, dose response, selectivity assay for selective ERAP1 modulator project, biochemical, fluorescence plate reader, cherry-picked samples (AID 743319)
Details: recombinant ERAP2, Arg-AMC cleavage fluorescence, 1 h

Endoplasmic reticulum aminopeptidase 2 (Homo sapiens), sequence (Q6P179 whole entry, looked up): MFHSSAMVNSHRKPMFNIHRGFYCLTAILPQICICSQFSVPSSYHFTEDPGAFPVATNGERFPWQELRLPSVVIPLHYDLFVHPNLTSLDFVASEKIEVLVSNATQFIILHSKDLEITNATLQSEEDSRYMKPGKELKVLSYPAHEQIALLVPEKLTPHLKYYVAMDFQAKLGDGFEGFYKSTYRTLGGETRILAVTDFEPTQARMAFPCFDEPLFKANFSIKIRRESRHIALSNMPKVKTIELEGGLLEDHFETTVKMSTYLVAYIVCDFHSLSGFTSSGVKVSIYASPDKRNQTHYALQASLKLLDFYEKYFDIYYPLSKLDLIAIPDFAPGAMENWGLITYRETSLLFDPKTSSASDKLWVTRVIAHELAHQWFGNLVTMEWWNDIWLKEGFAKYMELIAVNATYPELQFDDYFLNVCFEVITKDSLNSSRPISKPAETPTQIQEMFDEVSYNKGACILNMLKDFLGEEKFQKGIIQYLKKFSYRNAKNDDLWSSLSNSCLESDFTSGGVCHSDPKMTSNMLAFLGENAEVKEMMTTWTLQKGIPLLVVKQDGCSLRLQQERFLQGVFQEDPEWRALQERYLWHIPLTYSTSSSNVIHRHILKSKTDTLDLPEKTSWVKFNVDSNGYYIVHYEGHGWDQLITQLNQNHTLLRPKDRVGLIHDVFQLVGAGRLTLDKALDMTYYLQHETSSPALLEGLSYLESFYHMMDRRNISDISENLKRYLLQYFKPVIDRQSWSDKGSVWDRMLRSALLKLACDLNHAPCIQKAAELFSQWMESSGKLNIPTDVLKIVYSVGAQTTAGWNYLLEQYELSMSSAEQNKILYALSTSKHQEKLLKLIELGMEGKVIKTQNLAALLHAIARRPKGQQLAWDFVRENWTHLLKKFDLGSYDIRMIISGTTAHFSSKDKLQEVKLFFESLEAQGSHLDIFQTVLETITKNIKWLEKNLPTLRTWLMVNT

Row | SMILES | AC200
1 | Cc1c(C)c2ccc(O)c(CN3CCCC3)c2oc1=O | 2100 nM
2 | CN1CCCC1CCNc1ccc2c(=O)c3ccccc3oc2c1 (configuration not stated) | 1140 nM
3 | CCNC(=O)[C@@H]1[C@@H](CO)[C@@H]2Cn3c(ccc(/C=C/c4ccccc4)c3=O)[C@H]1N2C(=O)C1CCCC1 | 1590 nM

The next lines start with the values.

Row | AC200 | SMILES
4 | 775 nM | COc1ccc(-c2cc3ccc(O)cc3oc2=O)cc1
5 | 1330 nM | CCCc1cc(=O)oc2c(CN(CC)CC)c(O)c(Cl)cc12
6 | > 5600 nM (inactive) | COc1cc2cc(C(=O)N3CCN(Cc4ccc5c(c4)OCO5)CC3)c(=O)oc2cc1OC

Same assay, conditions: recombinant ERAP2, Arg-AMC cleavage fluorescence, 1 h; at 11 µM (top of the series)

Row | activation | SMILES
7 | 16% (inactive) | CCCN(C)C[C@@H]1OCCCC[C@@H](C)Oc2ccc(NS(=O)(=O)c3ccccc3)cc2C(=O)N([C@H](C)CO)C[C@@H]1C
